# Entries after “also recorded” stand apart in the source; their conditions may differ. No end group written: not given here.
# Experiments:
# [1] = tested on: endothelial cells and smooth muscle cells of rat cerebral arteries; test: Uptake of fluorescent peptides by pressure-mounted rat cerebral arteries; type: cell-based
# Method: Tat-P16 peptides were prepared and labeled with fluorescein for use in uptake studies using intact blood vessels isolated from rat brain. Blood vessels were dissected from rat brain and stabilized in an isolated perfusion system in which vessels were attached on either end to catheters and placed under physiological pressure. Following a 10 minute perfusion of the isolated vessels with flurorescent Tat-P16 peptide (1 μM), vessels were examined for uptake of the peptides. […] Within the endothelial cells, the labeled peptides were seen to be localized to the cell nuclei, further confirming uptake of the peptides by the cells.
# The peptides are fairly labile in the media and approximately 50% are degraded upon incubation at 37° C. in complete media (qualitative analysis by PAGE) after 1 hour. […] Uptake of these peptides and cell killing activity was tested in a 3 dimensional organ culture using rat cerebral arteries cultured under physiological pressure and flow. A segment of the rat cerebral artery is surgically removed and placed in ringer's solution. Using a surgical stereoscope, the blood vessel is tied at either end to two cannulas on a teflon stage. Ringer's solution is perfused through the lumen of the vessel at a constant rate that maintains physiologic hydrostatic pressure. The fluorescent peptide was introduced intraluminally by perfusing a 1 μM solution of peptide through the lumen over a 10 minute period.
# Rats were anesthetized by intraperitoneal injection of pentobarbital sodium (160 mg/kg) and killed by decapitation. The brain was removed and placed in an ice-cold oxygenated physiological cerebrospinal fluid (PCSF, see below for composition). Cerebellar arteries were isolated and mounted in an arteriograph as described previously (Knot and Nelson 1998). The arteriograph was placed on an inverted microscope and the artery was visualized with a monochrome CCD camera coupled to a calibrated video caliper system to measure arterial diameter. The arteries were slowly pressurized to 70 mmHg under no flow conditions using a pressure servo-null system (Living Systems Inc., Burlington Vt.), and warmed to 37° C. while being continuously superfused (5 ml/min) with PCSF bubbled with 21% O2, 5% CO2, 74% N2 (pH 7.35-7.40 in the bath). […] Myogenic tone is calculated by the following equation: Myogenic tone=(Dp−Da)/Dp×100
# (§1) In some experiments, the arterial segments were denuded of endothelium by passing an air bubble through the lumen, thus exposing the smooth muscle cells to luminally administered peptides. Constriction to pressure and 60 mM KCl and dilation of arteries with myogenic tone to 16 mM KCl were used as benchmarks of functional arteries. Peptide containing PCSF was perfused intraluminally at an inlet pressure of 70 mmHg with the outlet open, for 20 min and then perfused with normal PCSF. This procedure ensures a 20 min of exposure of the arteries to the peptide.
# [2] = tested on: rat cerebral arteries; test: Vasodilation and vasoconstriction response of rat cerebral arteries before and after peptide; type: cell-based; conditions: after vs before intraluminal peptide
# Method: The blood vessels were put in culture described above and perfused with buffer of the same composition as cerebrospinal fluid. Vessel diameter was measured before and after administration of each reagent. 3 μM of each peptide was perfused through for 10 minutes followed by a 10 minute wash through. Vasoconstriction and vasodilation were determined for each vessel before peptide was applied. Perfusion was continued until the vessels relaxed to their original diamter (approximately 30 minutes). The vasoconstriction and vasodilation reponse was remeasured after the 10 minute wash through. The 60 mM KCl and 16 mM KCl conditions are […], respectively. Histamine and Bradykinin are endothelial cell vasodilators.
# as §1
# (§2) Effect of peptide on endothelial and smooth muscle function was evaluated by histamine (0.3 and 1 μM) and bradykinin (0.5 μM) (endothelium-dependent vasodilators) and 16 and 60 mM KCl (results in dilation and constriction of arteries by hyperpolarizing and depolarizing smooth muscle, respectively). These drug solutions were added to the superfusate and applied to the arteries extraluminally for 10 to 15 min before and after intraluminal perfusion with peptides. Effects of these agents were expressed as percent change in myogenic tone (decrease for dilators and increase for constrictors). Experiments were concluded by exposing the arteries to calcium free PCSF to obtain the passive diameter. Cell viability was determined by adding H3334 (Hoechst viability stain, final concentration 1 μM) and propidium iodide (final concentration 1 μM) to the arteriograph after the peptide incubation. Fluorescent micrographs were taken of the vessels after incubation with peptides and following addition of the vital stains using Till Photonics imaging system (Martinsried, Germany).
# [3] = tested on: rat cerebral arteries; test: Cell viability staining of arteries (propidium iodide, H3334) after peptide; type: cell-based; conditions: after treatment with peptide
# Method: No PI statined smooth muscle cell nuclei were observed.
# as §2
# [4] = tested on: HUVEC attachment to vitronectin coated plates; conditions: read-out: IC50 for inhibiting HUVEC attachment to vitronectin coated plates; cited from earlier work
# [5] = biological target: Flk-1 (Homo sapiens, UniProt P35968); conditions: cited from earlier work
# Chain of Flk-1 (P35968 20-1356, species assumed): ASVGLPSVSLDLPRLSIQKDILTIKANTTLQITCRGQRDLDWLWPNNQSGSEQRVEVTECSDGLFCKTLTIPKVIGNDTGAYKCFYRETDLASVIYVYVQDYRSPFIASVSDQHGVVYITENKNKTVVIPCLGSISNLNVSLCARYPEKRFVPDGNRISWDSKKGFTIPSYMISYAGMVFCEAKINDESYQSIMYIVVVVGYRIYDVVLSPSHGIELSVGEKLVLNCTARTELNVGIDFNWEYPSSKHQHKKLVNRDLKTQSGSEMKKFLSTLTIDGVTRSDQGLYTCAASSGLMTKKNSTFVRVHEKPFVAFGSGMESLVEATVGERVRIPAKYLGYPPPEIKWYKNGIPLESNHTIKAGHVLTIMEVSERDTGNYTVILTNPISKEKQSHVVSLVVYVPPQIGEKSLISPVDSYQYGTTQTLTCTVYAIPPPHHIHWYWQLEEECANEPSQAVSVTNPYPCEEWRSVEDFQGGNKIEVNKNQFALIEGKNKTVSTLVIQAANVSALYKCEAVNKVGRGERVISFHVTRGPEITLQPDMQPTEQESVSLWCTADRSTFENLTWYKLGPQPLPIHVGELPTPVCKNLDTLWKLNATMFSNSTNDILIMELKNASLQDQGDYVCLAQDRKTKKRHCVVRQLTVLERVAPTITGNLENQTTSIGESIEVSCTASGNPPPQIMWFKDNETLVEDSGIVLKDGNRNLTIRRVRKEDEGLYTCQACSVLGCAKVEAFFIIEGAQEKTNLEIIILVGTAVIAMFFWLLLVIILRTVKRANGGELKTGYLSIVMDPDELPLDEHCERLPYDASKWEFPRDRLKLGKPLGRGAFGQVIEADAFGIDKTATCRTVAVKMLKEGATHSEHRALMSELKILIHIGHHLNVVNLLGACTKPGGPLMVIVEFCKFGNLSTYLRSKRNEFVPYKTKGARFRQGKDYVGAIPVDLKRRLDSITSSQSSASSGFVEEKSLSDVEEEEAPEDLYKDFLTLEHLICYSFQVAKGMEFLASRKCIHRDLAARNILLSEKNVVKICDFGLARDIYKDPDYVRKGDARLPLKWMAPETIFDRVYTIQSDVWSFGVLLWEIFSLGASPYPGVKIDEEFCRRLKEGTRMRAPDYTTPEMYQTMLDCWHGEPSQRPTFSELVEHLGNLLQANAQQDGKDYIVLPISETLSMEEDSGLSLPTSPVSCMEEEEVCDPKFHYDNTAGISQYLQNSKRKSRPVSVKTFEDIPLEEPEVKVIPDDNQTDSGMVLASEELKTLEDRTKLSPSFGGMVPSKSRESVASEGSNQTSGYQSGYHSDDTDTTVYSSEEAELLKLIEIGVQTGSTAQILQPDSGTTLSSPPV
# [6] = tested on: RG2 cells; test: Fusion peptide cell killing, propidium iodide/FACS viability, RG2 cells; type: cell-based, rat
# Method: (§3) Other experiments were performed using two glioma cell lines, i.e., T98G and RG2. 1×10^6 cells per well were incubated in 6-well plates with peptides in complete media for 1 hr. Cells were removed from the plate using a cell stripper and the percentage of viable cells was determined by staining with propidium iodide and analyzing by fluorescence activated cell sorting (FACS).
# There are 4 conserved amino acid differences between the rat and human CDKI sequence. Both sequences were attached to Tat and tested for cell killing activity in the rat glioma RG2 cells. Also the effect of orientation of the Tat and CDKI domains were tested. RG2 cells were plated on 6 well plates at approximately 70% confluency. Each of the peptides was added to the wells with increasing concentration. After 1 hr, cells were removed from the plates, washed 2× with PBS, stained with propidium iodide and analyzed by FACS for viable cells.
# (§4) Cell viability studies were performed by plating the cells under the same conditions as the uptake studies. Cells were incubated with fluorescent peptides for 1 hr at 37° C. The cells were removed from the plate using cell striper. They were labeled with propidium iodide and fluorescein-AM. Percent PI positive cells were determined by FACS.
# The cytotoxicity of the chimeric peptides was characterized using a cell viability assay. Peptides were added to cells at a fixed concentration. After a 30-minute incubation, cells were removed from the plate, stained with propidium iodide and the % positive cells were determined by FACS (fluorescent activated cell scanning). The test conditions were Tat, ANT, Tat-P14ARF, ANT-P14ARF and P14ARF. T98G cells were tested along with RG2 cells and A172 cells.
# [7] = tested on: T98G cells; test: Fusion peptide cell killing, propidium iodide/FACS viability, T98G cells; type: cell-based, human; conditions: 10 μM peptide, 1 hr
# Method: as §3, §4
# [8] = tested on: A172 cells; test: Fluorescein peptide uptake by A172 cells, fluorescence microscopy; type: cell-based, human
# Method: (§5) For fluorescent microscopy studies cells were plated on 2 chamber cover slips at a density of 1×10^4 cells/chamber. Cells were incubated with […] peptide for 30 minutes in completed media, washed with PBS 3× and imaged using a Nikon Axiophot inverted fluorescent microscope. Images were taken using a Spot CCD camera.
# Synthetic peptides derived from HIV Tat (Tat) and the Drosophila antennaepedia homeodomain (ANT) were tested for cell uptake by A172 cells (human glioblastomas). The peptides were labeled at the N-terminus with fluorescein. Cells were incubated with 30 uM peptide at 37° C. in serum containing media. Fluorescent micrographs were taken after 1 hr incubation at 37° C. […] The size of the peptide was increased by added an Mdm-2 binding domain derived from P14ARF. This domain was added to the C-terminus of the Tat and ANT peptides. The P14ARF domain was also placed at the N-terminus followed by the Tat peptide. All the peptides were labeled at the N-terminus with fluorescein and cell incubations similar to the Tat and ANT peptides were tested for cellular uptake. […] Both the bright field and fluorescent micrographs show altered cell morphology.
# [9] = tested on: RG2 cells; test: Fluorescein peptide uptake by RG2 cells, fluorescence microscopy; type: cell-based, rat
# Method: as §5
# Similar observations were obtained for all the peptides in another human glioblastoma cell line, T98G.
# [10] = tested on: endothelial cells and smooth muscle cells of rat cerebral arteries; test: Uptake of fluorescent peptides by pressure-mounted rat cerebral arteries; type: cell-based; conditions: extraluminal addition
# [11] = tested on: T98G cells, RG2 cells and A172 cells; test: Cell viability assay of chimeric peptides in three cell types; type: cell-based, human and rat; conditions: fixed concentration, 30-minute incubation
# Method: Synthetic peptides labeled with an N-terminal fluorescein were synthesized to test the ability of a shuttle domain to enter brain tumor and endothelial cells. The amino acid sequences for the shuttle domain was derived from HIV Tat amino acid 47 to 56 ([…] SEQ ID NO:23)(Robert-Guroff et al., J. Virol. 64:3391-3398, 1990) to which AGGG was added to the N-terminus, and the antennapedia homeodomain from drosophila (ANT) ([…] SEQ ID NO:24) (Astriab-Fisher et al., Pharm. Res., 19:744-754, 2002). A synthetic peptide (PTD-5) reported to have similar properties as Tat and ANT was also tested (Mai J. C. et al, Cancer Res. 2001; 61: 7709-7712.). Uptake was tested in two human glioblastoma cell lines and a rat glioma cell line, the latter being used for the rat brain tumor model. A 1 μM concentration of each peptide was added to 10^6 cells in a 6 well plate. […] The Tat and ANT peptides were doubled in length by the addition of […] (SEQ ID NO: 25), amino acids 42 to 55 from a human cyclin-dependent kinase inhibitor 2A (melanoma, p16, inhibits CDK4) (CDKI), transcript variant 4, mRNA (accession no. NM_058195). […]
# The cytotoxicity of the chimeric peptides was characterized using a cell viability assay. […] After a 30-minute incubation, cells were removed from the plate, stained with propidium iodide and the % positive cells were determined by FACS (fluorescent activated cell scanning). […]
# [12] = tested on: two human glioblastoma cell lines and a rat glioma cell line; test: Fluorescein peptide uptake, fluorescence microscopy, three glioma lines; type: cell-based; conditions: 1 μM peptide, 10^6 cells, all three cell types
# Method: Synthetic peptides labeled with an N-terminal fluorescein were synthesized to test the ability of a shuttle domain to enter brain tumor and endothelial cells. The amino acid sequences for the shuttle domain was derived from HIV Tat amino acid 47 to 56 ([…] SEQ ID NO:23)(Robert-Guroff et al., J. Virol. 64:3391-3398, 1990) to which AGGG was added to the N-terminus, and the antennapedia homeodomain from drosophila (ANT) ([…] SEQ ID NO:24) (Astriab-Fisher et al., Pharm. Res., 19:744-754, 2002). A synthetic peptide (PTD-5) reported to have similar properties as Tat and ANT was also tested (Mai J. C. et al, Cancer Res. 2001; 61: 7709-7712.). Uptake was tested in two human glioblastoma cell lines and a rat glioma cell line, the latter being used for the rat brain tumor model. A 1 μM concentration of each peptide was added to 10^6 cells in a 6 well plate. […] The Tat and ANT peptides were doubled in length by the addition of […] (SEQ ID NO: 25), amino acids 42 to 55 from a human cyclin-dependent kinase inhibitor 2A (melanoma, p16, inhibits CDK4) (CDKI), transcript variant 4, mRNA (accession no. NM_058195). This domain binds MDM2 and inhibit ubiquination of P53, a tumor suppressor protein. […] Only the combination of Tat-CDKI was toxic to the cells, 65% killing for T98G and 61% killing for RG2 cells. […] Similar results were obtained with A172 cells. […]
# [13] = tested on: HIV; conditions: cited from earlier work
# [14] = intraluminal perfusion of fluorescent peptide
substance,measurement,setting,value
AGGGYGRKKRRQRRRMGRRFVVTVRIRRT [Tat-rat P14ARF],morphology of the endothelial cells,[1]; after intraluminal exposure,morphology of the endothelial cells was altered
same,labeling/uptake by endothelial cells,[1]; [14],restriction of labeling to the endothelial cells
same,endothelium-dependent dilation to histamine and bradykinin,[2],inhibition of vasodilation
same,smooth muscle response to 60 and 16 mM KCl,[2],no effect
same,propidium iodide staining of blood vessels,[3],only the endothelial cells were affected
CDMRGDMFC [αvβ3 integrin binding peptide],IC50,[4],10 µM
HTMYYHHYQHHL [Flk-1 binding peptide],IC50,[5],~100 µM
MVRRFLVTLRIRRA [P14ARF],% killing (toxicity),"[6]; 10 μM peptide, 1 hr",22%
same,reduction in cell viability,[6]; 30-minute incubation,22%
same,% killing (toxicity),[7],no toxicity
same,endothelium-dependent dilation to histamine and bradykinin,[2],responsive to all stimuli
same,smooth muscle response to 60 and 16 mM KCl,[2],responsive to all stimuli
MVRRFLVTLRIRRAAGGGYGRKKRRQRRR [P14ARF-Tat],staining pattern (cell uptake),"[8]; 30 uM peptide, 1 hr, 37° C., serum containing media",nuclear staining
same,cell density,"[8]; A172 cells, 1-hour incubation",reduced cell density
same,IC50,[6]; dose response 1 μM to 10 μM,3 µM
same,cell density,[9],reduced cell density compared to TatP14ARF
same,staining pattern (cell uptake),[9],nuclear staining
"RQIKIWFQNRRMKWKK [ANT, membrane permeability domain alone, control peptide]",fluorescent intensity (degree of cell uptake),"[8]; 30 uM peptide, 1 hr, 37° C.",greater for the ANT peptide than the Tat peptide
same,labeling/uptake by endothelial cells,[1]; [14],restriction of labeling to the endothelial cells; also recorded: cytoplasmic staining of the endothelial cells
same,labeling/uptake by smooth muscle cells,[1]; [14],did not label the smooth muscle cells
same,labeling of smooth muscle cells,[10],able to label the smooth muscle cells
same,cells killed,[11],No impact on cell viability
same,fluorescence labeling of cells (uptake),[12],stained the cytoplasm
RQIKIWFQNRRMKWKK-MVRRFLVTLRIRRA [ANT-P14ARF],staining pattern (cell uptake),[9],intracellular punctate staining
RRNalCYCitKdEPYRCitCR [CXCR4 peptide],IC50 for inhibiting HIV,[13],in the nM range

# From patent US7339042B2, “Gene delivery to tumors” (University of Florida Research Foundation, Inc., priority 2003, dated 2008)
